The source of these data is ChEMBL document CHEMBL1130827, “Molecular lipophilicity potential by CLIP, a reliable tool for the description of the 3D distribution of lipophilicity: application to 3-phenyloxazolidin-2-one, a prototype series of reversible MAOA inhibitors” (Bioorg Med Chem Lett, 1998).

As usually defined, the logP is the decadic logarithm of the partition coefficient of the neutral form, usually between octanol and water. Lower therefore signals a more hydrophilic compound.

Series [1] in a line: Logarithm of capacity factor was determined. It counts as ADME.
For series [2], the target named is T1, Amine oxidase [flavin-containing] A (Homo sapiens, UniProt P21397).
T1 sequence (P21397 whole entry): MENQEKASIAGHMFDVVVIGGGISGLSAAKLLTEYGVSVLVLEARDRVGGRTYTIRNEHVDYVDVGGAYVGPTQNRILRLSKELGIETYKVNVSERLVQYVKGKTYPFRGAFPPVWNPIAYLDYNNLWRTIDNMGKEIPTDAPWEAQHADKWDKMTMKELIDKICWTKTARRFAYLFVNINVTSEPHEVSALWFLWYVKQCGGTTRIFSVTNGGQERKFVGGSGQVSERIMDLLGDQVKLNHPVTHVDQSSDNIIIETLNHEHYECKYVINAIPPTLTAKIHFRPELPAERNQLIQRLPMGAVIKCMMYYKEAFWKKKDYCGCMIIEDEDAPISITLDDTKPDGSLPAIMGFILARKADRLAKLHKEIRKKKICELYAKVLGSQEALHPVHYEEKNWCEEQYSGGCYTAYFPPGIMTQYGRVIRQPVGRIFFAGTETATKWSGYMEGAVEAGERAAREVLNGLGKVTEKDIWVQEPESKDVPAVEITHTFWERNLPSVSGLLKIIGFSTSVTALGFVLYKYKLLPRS
Kind of series: Monoamine oxidase A inhibitory potency. Particulars: read-out: KiA.

The nature of series [3]: Partition coefficient (logP). The format is physicochemical. Particulars: octanol/water.

Molecule `C=C(C)CCOc1ccc(N2C[C@H](COC)OC2=O)cc1` yielded a Log kw in series [1] of 3.08. The Ki in series [2] amounted to 28 nM. For the same molecule, the logP in series [3] turned out to be 3.03.

Turning to `COC[C@H]1CN(c2ccc(OCC(C)O)cc2)C(=O)O1` (stereo partly drawn), in series [1], the Log kw stood at 1.17. Besides, the Ki in series [2] is 220 nM. For the same molecule, the log partition coefficient (logP) in series [3] worked out at 1.17.

As to `COC[C@H]1CN(c2ccc(OCCCCO)cc2)C(=O)O1`, the Log kw in series [1] is 1.58. In addition, in series [2], the Ki came out at 29 nM. In addition, the logP in series [3] is 1.84.

`COC[C@H]1CN(c2ccc(OCCCC(C)O)cc2)C(=O)O1` (stereo partly drawn): in series [1], the Log kw worked out at 1.88. Also, the Ki in series [2] was 13 nM. Moreover, the logP in series [3] is 2.27.

For the molecule `COC[C@H]1CN(c2ccc(OCC[C@@H](C)OC)cc2)C(=O)O1`, the Log kw in series [1] worked out at 2.21. In addition, in series [2], the Ki was found to be 170 nM. This molecule also returned a logP in series [3] of 2.7.

`COC[C@H]1CN(c2ccc(OCCC(C)=O)cc2)C(=O)O1` returned a Log kw in series [1] of 1.43. Further, the Ki in series [2] amounted to 46 nM. The molecule also displayed a logP in series [3] of 1.37.

Take `COC[C@H]1CN(c2ccc(CCCO)cc2)C(=O)O1`: in series [1], the Log kw was determined as 1.3. Further, in series [2], the Ki stood at 1.6 nM. Also, the logP in series [3] was 1.27.

The molecule `COC[C@H]1CN(c2ccc(OCC[C@@H](C)O)cc2)C(=O)O1` yielded a Log kw in series [1] of 1.6. Also, in series [2], the Ki is 6.5 nM. Moreover, the logP in series [3] turned out to be 1.71.

In series [1], `COC[C@H]1CN(c2ccc(OCCO)cc2)C(=O)O1` displayed a Log kw of 1. In series [2], the Ki came to 390 nM. In series [3], this molecule had a logP of 0.77.

In series [1], `COC[C@H]1CN(c2ccc(CCO)cc2)C(=O)O1` yielded a Log kw of 1. Further, the Ki in series [2] is 80 nM. The logP in series [3] turned out to be 1.13.

In the case of `COC[C@H]1CN(c2ccc(OCC[C@@H](O)C(F)(F)F)cc2)C(=O)O1` [BEFLOXATONE], the Log kw in series [1] was determined as 2.45. For the same molecule, the Ki in series [2] was 3.5 nM. The same molecule returned a logP in series [3] of 2.48.
